According to US10800778B2 (Entasis Therapeutics Limited, priority 2016, dated 2020):
Structures can show the parent of a compound that is named as a salt.

Tests used:
[1] = test system: Klebsiella pneumoniae SHV-18, OXA-2, OKP-6 (ATCC 700603); test: MIC, CLSI broth microdilution, beta-lactam with or without BLI; type: cell-based; details: for MIC of beta-lactam alone / MIC: no BLI; for MIC: Klebsiella pneumoniae, ATCC700603, read-out: MIC of beta-lactam alone
Protocol: (§1) The minimal inhibitory concentration (MIC) values against each organism and drug combination were determined using the Clinical and Laboratory Standards Institute guidelines (CLSI) broth microdilution methodology (CLSI M07-A10). The recommended quality control (QC) bacterial strains E. coli ATCC 25922, E. coli ATCC 35218 and Klebsiella pneumoniae ATCC 700603 were incorporated into each test according to the CLSI guidelines to assure that there was no variation between test dates (CLSI M100-S25). The MICs of these QC strains were within QC range on all test occasions. Drug containing plates were made using the master plate method. A cefpodoxime solution was prepared to 20× concentration and 2-fold serial dilutions were made in cation adjusted Mueller-Hinton Broth. Equal volumes of 20× examplar compounds at a fixed concentration were added to the master plate. 10 uL was stamped into daughter plates using a Tecan EVO robot. Organism suspensions were adjusted to a 0.5 McFarland standard and further diluted to yield a final inoculum between 3×10^5 and 7×10^5 colony-forming units (CFU)/mL. Bacterial inocula were made in sterile, cation adjusted Mueller-Hinton Broth (Beckton Dickinson). An inoculum volume of 1.1× concentration of 90 uL was added to wells (using a Tecan EVO robot). All inoculated microdilution plates were incubated in ambient air at 35° C. for 18-24 hours.
(§2) Following the procedure from Example 103, MICs were determined for several beta-lactams in presence of a fixed concentration (4 μg/mL) of exemplar compounds (Table 3) against 3 Enterobacteriaceae strains.

[2] = test system: C. freundii AmpC, TEM-1, CMY65; test: as above; type: cell-based; details: for MIC of beta-lactam alone / MIC: no BLI; for MIC: Citrobacter freundii, read-out: MIC of beta-lactam alone
Protocol: as §1, §2

[3] = test system: E. coli WT (ATCC 25922); test: as above; type: cell-based; details: for MIC of beta-lactam alone: no BLI; for MIC: Escherichia coli, ATCC25922, no BLI, read-out: MIC of beta-lactam alone
Protocol: as §1, §2

[4] = test system: E. coli ARC2687 (AmpC, CTX-M-14); test: Mouse neutropenic thigh infection model, oral efficacy of cefpodoxime proxetil with Example 35; type: in vivo
Protocol: The oral in vivo efficacy of Example 35 was evaluated in combination with cefpodoxime proxetil in a mouse neutropenic thigh infection model versus a relevant clinical isolate. […] CD-1 mice (Charles River, Wilmington US) were housed in shoebox type cages with contact bedding and acclimated to the facility for a minimum of 2 days prior to use. The animal room was maintained at 70° F., with 50+/−10% relative humidity and a 12-hour light/dark cycle. The study was conducted using an IACUC-approved protocol in accordance with Title 9 of the Code of Federal Regulations. Animals were rendered neutropenic with two intraperitoneal doses of cyclophosphamide (150 mg/kg—4 days and 100 mg/kg—1 day prior to infection (Gerber et al. (1983) J Infect Dis 147(5); 910-917)). Animals were infected via an intramuscular challenge of ˜1×10^6 CFU administered within 100 μL of 0.9% saline. The inoculum was prepared from a 25 mL overnight culture of E. coli ARC 2687 in tryptic soy broth media. Following an OD600 determination, the inoculum was diluted in 0.9% saline to a concentration of […] prior to inoculation into the left and right thigh. Oral therapy with cefpodoxime proxetil alone and in combination with Example 35 was initiated 2 hours post bacterial challenge. Doses were suspended in 0.5% HPMC/0.1% Tween 80 and administered by oral gavage at a dose volume of 10 mL/kg. A terminal endpoint was obtained at 24 hr to determine bacterial counts in thigh tissue (CFU/gm). Animals were ethically euthanized, thighs were asceptically removed, weighed and homogenized in 1 mL of saline. Bacterial burden enumeration of tissue homogenate was performed by serial dilution on tryptic soy agar plates which were incubated overnight at 37° C. prior to colony (CFU) counting. The lower limit of detection was ˜2.6 log10 CFU/gm of tissue.

[5] = Rat PK, intravenous and oral; type: in vivo, Sprague-Dawley rats; details: for AUC: Sprague-Dawley, plasma, 10 mg/kg, rat, PO, analyte = compound administered (sulfate-derived comparator)
Protocol: Intravenous rat pharmacokinetics of exemplar compounds were determined in jugular vein cannulated Sprague-Dawley rats (n=3) (Harlan Laboratories, Indianapolis, Ind.) at a dose of 10 mg/kg. Compounds were dissolved and administered intravenously in 0.9% saline, pH 6.5 at a dose volume of 2 mL/kg. […] Oral pharmacokinetic studies were conducted with exemplar compounds at 10 mg/kg equivalents of carboxylic acids. Doses were dissolved and administered orally in 25:75 PEG400: water for injection, pH 4.5 at a dose volume of 10 mL/kg. […] Plasma samples were stored at −80° C. prior to bioanalysis.
Plasma samples were thawed on ice prior to processing. Samples (30 μL) were diluted and proteins precipitated with 180 μL of acetonitrile containing 0.1% formic acid and 250 ng/mL of carbutamide (N1-(butylcarbanoyl)-sulfanilamide, Sigma-Aldrich Catalog # S385433) as an internal standard. Samples were vortexed for 30 seconds, centrifuged at 3400 g for 10 minutes and the supernatant transferred to injection vials.
LC/MS/MS analysis was completed on an AB Sciex QTrap 6500 mass spectrometer in positive ionization mode, coupled to a Schimadzu Nexera LC system. A Waters Atlantis T3 (3 μm, 3.0×50 mm) column was used for chromatographic separation. Injection volume was […] The mobile phase consisted 0.1% formic acid in water (A) and 0.1% formic acid in acetonitrile (B), with a gradient of 2-98% B:A over two minutes.
Plasma concentration vs. time profiles following intravenous (IV) administration and oral (PO) administration of exemplar compounds were analyzed by non-compartment analysis using WinNonLin 6.4.

[6] = Stability/conversion of esters in rat liver S9; type: in vitro ADME; details: liver S9, pH 7.4, read-out: T1/2 Rat Liver S9
Outline: (§3)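 Esters at 10 μM incubated at 37 °C with 0.8 mg/mL S9 (human intestinal without PMSF, rat liver or rat intestinal) or no enzyme, in 100 mM HEPES pH 7.4; sampled 0–60 min. LC-MS/MS tracked ester and hydrolysed active; first-order T1/2 from ester disappearance.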

[7] = Stability/conversion of esters in human liver S9; type: in vitro ADME; details: liver S9, pH 7.4, read-out: T1/2 Human Liver S9
Outline: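 Ester test compounds (10 μM) were incubated at 37° C with human liver S9 at 0.8 mg/mL in 100 mM HEPES buffer, pH 7.4. Aliquots taken from 0 to 60 min were quenched in acetonitrile containing carbutamide internal standard, centrifuged, and analyzed by LC-MS/MS MRM; first-order half-lives came from loss of the parent ester.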

[8] = Stability/conversion of esters in human intestinal S9; type: in vitro ADME; details: intestinal S9 (without PMSF), pH 7.4, read-out: T1/2 Human Intestinal S9
Outline: as §3

[9] = Stability in pH 7.4 buffer (no enzyme); type: physicochemical; details: HEPES buffer without enzyme, read-out: T1/2 pH 7.4 Buffer
Outline: as §3

[10] = Stability/conversion of esters in rat intestinal S9; type: in vitro ADME; details: intestinal S9, pH 7.4, read-out: T1/2 Rat Intestinal S9
Outline: as §3

[11] = biological target: TEM-1 (Class A beta-lactamase) (Escherichia coli, UniProt P62593); test: Inhibition of beta-lactamase enzymes (nitrocefin hydrolysis), TEM-1; type: biochemical; details: read-out: Class A TEM-1 60 min IC50, nitrocefin 100 μM
Sequence of TEM-1 (Class A beta-lactamase) (P62593 whole entry, looked up, species assumed): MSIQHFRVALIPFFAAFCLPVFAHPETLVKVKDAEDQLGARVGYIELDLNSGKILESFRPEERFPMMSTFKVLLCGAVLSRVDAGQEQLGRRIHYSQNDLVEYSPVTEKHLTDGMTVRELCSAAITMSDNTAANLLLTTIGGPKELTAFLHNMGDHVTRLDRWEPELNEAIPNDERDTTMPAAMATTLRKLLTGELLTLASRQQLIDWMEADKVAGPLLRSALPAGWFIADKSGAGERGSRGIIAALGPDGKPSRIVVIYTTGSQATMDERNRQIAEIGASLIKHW
Outline: (§4)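 Nitrocefin (100 μM) hydrolysis followed at 490 nm for 1 h in 0.1 M sodium phosphate pH 7.0, 10 mM NaHCO3, 0.005% Triton X-100, with 3-fold inhibitor dilutions from 100 μM to 62.7 pM. Progress curves fitted globally to give kinact/Ki or Ki; percent inhibition from best-fit absorbance fitted with Hill equation.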

[12] = biological target: OXA-48 (Class D beta-lactamase) (Klebsiella pneumoniae, UniProt Q6XEC0); test: Inhibition of beta-lactamase enzymes (nitrocefin hydrolysis), OXA-48; type: biochemical; details: read-out: Class D OXA-48 60 min IC50, nitrocefin 100 μM
Sequence of OXA-48 (Class D beta-lactamase) (Q6XEC0 whole entry, looked up, species assumed): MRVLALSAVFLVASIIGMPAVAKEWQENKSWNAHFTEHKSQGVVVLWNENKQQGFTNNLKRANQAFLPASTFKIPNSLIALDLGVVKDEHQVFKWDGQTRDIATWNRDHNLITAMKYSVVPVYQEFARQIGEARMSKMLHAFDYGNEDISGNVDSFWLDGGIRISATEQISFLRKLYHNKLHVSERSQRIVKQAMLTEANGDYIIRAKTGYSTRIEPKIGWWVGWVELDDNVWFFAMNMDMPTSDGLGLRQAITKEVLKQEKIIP
Outline: as §4

[13] = K. pneumoniae SHV-18, OXA-2, OKP-6 (ATCC 700603)
[14] = BLI at fixed 4 μg/ml, K. pneumoniae ATCC 700603

## C=CC1=C(C(=O)O)N2C(=O)[C@@H](NC(=O)/C(=N\OCC(=O)O)c3csc(N)n3)[C@H]2SC1 [Cefixime, cefixime, reference compound]
[1]; [13]
  MIC of beta-lactam alone: 8 µg/mL
[2]
  MIC of beta-lactam alone: >64 µg/mL
[3]
  MIC of beta-lactam alone: 0.5 µg/mL

## COCC1=C(C(=O)OC(C)OC(=O)OC(C)C)N2C(=O)[C@@H](NC(=O)/C(=N\OC)c3csc(N)n3)[C@H]2SC1 (stereo partly shown) [Cefpodoxime proxetil, cefpodoxime proxetil, reference compound]
[4]; cefpodoxime proxetil alone 50 mg/kg PO/q6h, mouse neutropenic thigh, E. coli ARC2687
  log10CFU/gm thigh: 10.24 log10CFU/gm thigh
[4]; cefpodoxime proxetil alone 50 mg/kg PO/q6h, relative to 26 hr growth control
  CFU Change from 26 hr: −0.62 log10 CFU/gm
[4]; cefpodoxime proxetil alone 50 mg/kg PO/q6h, relative to initiation of therapy
  CFU Change from 2 hr: +3.97 log10 CFU/gm
[4]; cefpodoxime proxetil alone at 50 mg/kg q6h, oral, neutropenic CD-1 mice
  growth of bacterial burden in thighs after 24 hours of therapy: greater than 3 log10 CFU/gm

## CO/N=C(\C(=O)N[C@@H]1C(=O)N2C(C(=O)O)=C(COC(N)=O)CS[C@H]12)c1ccco1 [Cefuroxime, cefuroxime, reference compound]
[1]; [13]
  MIC of beta-lactam alone: 32 µg/mL
[2]
  MIC of beta-lactam alone: >64 µg/mL
[3]
  MIC of beta-lactam alone: 4 µg/mL

## CC1=C[C@@H]2CN(C(=O)N2OS(=O)(=O)O)[C@@H]1C(N)=O [ETX2514, reference compound]
[5]
  AUC: 0.44 µM·h

## CC1=C[C@@H]2CN(C(=O)N2O[C@H](F)C(=O)OC(C)C)[C@@H]1C(N)=O [Example 12, propan-2-yl (2R)-{[(2S,5R)-2-carbamoyl-3-methyl-7-oxo-1,6-diazabicyclo[3.2.1]oct-3-en-6-yl]oxy}(fluoro)ethanoate]
[6]
  half-life at 10 μM: 14 min
[7]
  half-life at 10 μM: 16 min
[8]
  half-life at 10 μM: 132 min
[9]
  half-life at 10 μM: 236 min
[10]
  half-life at 10 μM: 233 min
[5]; rat plasma, LC/MS/MS
  Circulating concentrations of the ester in plasma: Rapid hydrolysis precluded satisfactory analysis of circulating concentrations

## CC1=C[C@@H](C(N)=O)N2C[C@@H]1N(OCC(=O)O)C2=O [Example 93, 2-(((2S,5R)-2-carbamoyl-4-methyl-7-oxo-1,6-diazabicyclo[3.2.1]oct-3-en-6-yl)oxy)acetic acid lithium salt]
[11]
  IC50: 150 nM
[1]; BLI at fixed 4 μg/mL, K. pneumoniae SHV-18, OXA-2, OKP-6 (ATCC 700603), lithium salt
  MIC of cefpodoxime in presence of BLI: 0.125 µg/mL
[1]; [14]
  MIC of cefixime in presence of BLI: 0.125 µg/mL
  MIC of faropenem in presence of BLI: 1 µg/mL
  MIC of tebipenem in presence of BLI: ≤0.06 µg/mL
[2]; BLI at fixed 4 μg/ml
  MIC of cefixime in presence of BLI: ≤0.06 µg/mL
  MIC of faropenem in presence of BLI: ≤0.06 µg/mL
  MIC of tebipenem in presence of BLI: ≤0.06 µg/mL
[3]; BLI at fixed 4 μg/ml
  MIC of cefixime in presence of BLI: ≤0.06 µg/mL
  MIC of faropenem in presence of BLI: ≤0.06 µg/mL
  MIC of tebipenem in presence of BLI: ≤0.06 µg/mL
[12]
  IC50: 53 nM

## C[C@@H](O)[C@H]1C(=O)N2C(C(=O)O)=C([C@H]3CCCO3)S[C@H]12 [Faropenem, faropenem, reference compound]
[1]; [13]
  MIC: 8 µg/mL
[2]
  MIC: 8 µg/mL
[3]
  MIC: 0.5 µg/mL

## N[C@@H](C(=O)N[C@@H]1C(=O)N2C(C(=O)O)=C(Cl)CC[C@H]12)c1ccccc1 [Loracarbef, loracarbef, reference compound]
[1]; [13]
  MIC of beta-lactam alone: 32 µg/mL
[2]
  MIC of beta-lactam alone: >64 µg/mL
[3]
  MIC of beta-lactam alone: 2 µg/mL

## O=C(NC1CCNCC1)[C@@H]1CC[C@@H]2CN1C(=O)N2OS(=O)(=O)O [Relebactam, reference compound]
[5]
  AUC: 0.29 µM·h

## C[C@@H](O)[C@H]1C(=O)N2C(C(=O)O)=C(SC3CN(C4=NCCS4)C3)[C@H](C)[C@H]12 [Tebipenem, tebipenem, reference compound]
[1]; [13]
  MIC: 0.125 µg/mL
[2]
  MIC: 0.125 µg/mL
[3]
  MIC: ≤ 0.06 µg/mL

## CC1(C)[C@H](NC(=O)/C(=N\OCC(=O)O)c2csc(N)n2)C(=O)N1OS(=O)(=O)O [Tigemonam, tigemonam, reference compound]
[1]; [13]
  MIC of beta-lactam alone: 32 µg/mL
[2]
  MIC of beta-lactam alone: 4 µg/mL
[3]
  MIC of beta-lactam alone: 1 µg/mL

## N#CC1CC[C@@H]2CN1C(=O)N2OS(=O)(=O)O (stereo partly shown) [WCK 4234, reference compound]
[5]
  AUC: 0.45 µM·h
